One data set concerns the target hERG channel (Homo sapiens (Human), UniProt Q12809). The experiment in a line: Blocking of hERG channel, whole-cell patch clamp in stably transfected HEK 293 cells. Format: cell-based. Conditions: HEK 293 cells. On the technique in general: hERG is a cardiac potassium channel; its block is linked to QT prolongation.
The next data set relates to P. acnes EG7NS. The experiment in a line: MIC determination by broth microdilution (anaerobic). It is filed as cell-based, Propionibacterium acnes. Conditions: Cutibacterium acnes, EG7NS; read-out: MIC (μg/ml) P. acnes EG7NS. On the procedure: (§1) All MIC values are determined by broth microdilution according to the guidelines by the Clinical and Laboratory Standards Institute (CLSI, Wayne Pa., USA). Staphylococcus aureus ATCC29213 is grown on Müller-Hinton agar (MHA) (Becton Dickinson) and then in cation-adjusted Müller Hinton broth (CaMHB) (Becton Dickinson) for 24 h at 37° C. Streptococcus pyogenes ATCC19615 and Moraxella catharrhalis QK34 are grown on MHA with 2.5% Laked Horse Blood (Oxoid). Liquid cultures in CaMHB+5% horse serum (Sigma) are incubated for 24 h at 35° C. in a 5% CO2 atmosphere. Haemophilus. influenzae 3168 is grown on MHA+2.5% Fildes extract (Oxoid). Liquid cultures are grown in CaMHB+5% Fildes extract at 35° C. in a 5% CO2 atmosphere. Propionibacteria are grown on Wilkins-Chalgren agar (WCA) (Oxoid) for 72 h under anaerobic conditions. Liquid cultures are grown anaerobically in Wilkins-Chalgren broth (WCB) (Oxoid) for 48 h at 35° C. MIC values are obtained by broth microdilution using WCB (Anaerobe Broth MIC, Difco). Microtitre plates are loaded into 7-L GENbox anaerobic incubation jars (BioMerieux) fitted with anaerobic atmosphere generators (BioMerieux) and a Dry Anaerobic Indicator Strip (BBL). Under these conditions, an O2 concentration <0.1% is achieved by 2.5 h, and a CO2 concentration >15% by 24 h.
For orientation: Broth dilution looks for growth in wells or tubes with falling amounts of substance.

The nature of data set [1]: Oral bioavailability, pharmacokinetic study in mice. Format: in vivo, mouse. On the procedure: Drug concentrations in blood or plasma are determined as a function of time in pharmacokinetic studies. Mice were treated with the test compound at defined doses. 10 mg/kg is used for oral administration and 1 mg/kg is taken for intravenous administration. Blood or plasma samples are collected at defined time-points and the drug content is determined by LC-MS/MS. The drug concentration is plotted as a function of time and the non-intravenous (oral) and the intravenous area under the curve (AUC) is calculated using the linear trapezoidal rule. The oral bioavailability is then calculated using dose-normalized AUC with the following formula: F[%]=AUCoral/AUCintravenous*100 Blocking of hERG Channel

The test system of the next data set is PDE4 (U937). Kind of data set: PDE4 enzyme inhibition, IMAP fluorescence polarization assay. Format: biochemical, human. The procedure:
PDE4 is partially purified from undifferentiated human monocytic cells (U937) according to Thorpy et al. 1992 (J. Pharmacol. Exp. Ther. 263: 1195). Cells are grown in Iscove's modified Dulbecco's medium (GIBCO) with 5% foetal bovine serum (GIBCO) and 100 μg/mL penicillin-streptomycin (GIBCO). Cells are broken by sonication and PDE4 is purified by anion-exchange chromatography on DEAE-Sepharose CL-6B (GE Healthcare). […] In addition, PDE4 preparations are validated by inhibition studies with PDE4-specific and unspecific PDE inhibitors.
PDEs specifically hydrolyze cAMP and/or cGMP and release the product AMP and/or GMP. The potency of PDE inhibition by test compounds is determined with a commercially available in vitro enzymatic assay (IMAP® Fluorescence Polarization assay, Molecular Devices Corp.). Fluorescently labeled cAMP or cGMP is hydrolyzed by PDE preparations and in a second step, binding of labeled product to a large binding partner allows product detection by fluorescence polarization (FP) measurements.
Stock solutions of the test compounds are made in DMSO and diluted in assay buffer (10 mM Tris-HCl, 10 mM MgCl2, 0.1% BSA 0.05% NaN3, pH 7.2) to the desired concentrations. The solutions used in the assay contain the test compound in assay buffer with 2% DMSO. 5 μl of this pre-diluted test compound solution are mixed with 10 μl of substrate (FL-cAMP or FL-cGMP) at concentrations recommended by the manufacturer and with 5 μl of appropriately diluted PDE. 5 μl of reaction buffer with 2% DMSO are used for control reactions. […] After incubation for 90 minutes at room temperature, 60 μl of binding reagent are added as specified by the manufacturer. Binding is allowed to proceed for 30 minutes and fluorescence polarization is measured. Dose dependence of PDE inhibition is measured by assaying dilution series of test compounds. IC50 values are determined from the measured activities by curve fitting.
(Fluorescence polarisation rises when a labelled molecule tumbles more slowly, as on binding a larger partner.)

Another data set deals with M. catarrhalis QK34. Kind of data set: MIC determination by broth microdilution. The following applies: Moraxella catarrhalis, read-out: MIC (μg/ml) M. catarrhalis QK34. Format: cell-based, Moraxella catharrhalis. On the procedure:
as §1

The subject of a further data set is P. granulosum EG13NS. The experiment in a line: MIC determination by broth microdilution (anaerobic). Format: cell-based. The following applies: read-out: MIC (μg/ml) P. granulosum EG13NS. The procedure:
as §1

In a further data set the test system is S. aureus ATCC29213. The experiment in a line: MIC determination by broth microdilution. Format: cell-based. Conditions: Staphylococcus aureus, read-out: MIC (μg/ml) S. aureus ATCC29213. On the procedure: as §1
For another data set, the system named is H. influenzae 3168. The experiment in a line: MIC determination by broth microdilution. Conditions: Haemophilus influenzae, read-out: MIC (μg/ml) H. influenzae 3168. Format: cell-based. The procedure: as §1
The next data set has as its system S. pyogenes ATCC19615. Kind of data set: MIC determination by broth microdilution. Format: cell-based. Conditions: Streptococcus pyogenes, read-out: MIC (μg/ml) S. pyogenes ATCC19615. On the procedure: as §1
The test system of the next data set is bacteria. The experiment in a line: Antibacterial activity. It is filed as cell-based. The procedure: as §1

hERG channel, sequence (Q12809 whole entry): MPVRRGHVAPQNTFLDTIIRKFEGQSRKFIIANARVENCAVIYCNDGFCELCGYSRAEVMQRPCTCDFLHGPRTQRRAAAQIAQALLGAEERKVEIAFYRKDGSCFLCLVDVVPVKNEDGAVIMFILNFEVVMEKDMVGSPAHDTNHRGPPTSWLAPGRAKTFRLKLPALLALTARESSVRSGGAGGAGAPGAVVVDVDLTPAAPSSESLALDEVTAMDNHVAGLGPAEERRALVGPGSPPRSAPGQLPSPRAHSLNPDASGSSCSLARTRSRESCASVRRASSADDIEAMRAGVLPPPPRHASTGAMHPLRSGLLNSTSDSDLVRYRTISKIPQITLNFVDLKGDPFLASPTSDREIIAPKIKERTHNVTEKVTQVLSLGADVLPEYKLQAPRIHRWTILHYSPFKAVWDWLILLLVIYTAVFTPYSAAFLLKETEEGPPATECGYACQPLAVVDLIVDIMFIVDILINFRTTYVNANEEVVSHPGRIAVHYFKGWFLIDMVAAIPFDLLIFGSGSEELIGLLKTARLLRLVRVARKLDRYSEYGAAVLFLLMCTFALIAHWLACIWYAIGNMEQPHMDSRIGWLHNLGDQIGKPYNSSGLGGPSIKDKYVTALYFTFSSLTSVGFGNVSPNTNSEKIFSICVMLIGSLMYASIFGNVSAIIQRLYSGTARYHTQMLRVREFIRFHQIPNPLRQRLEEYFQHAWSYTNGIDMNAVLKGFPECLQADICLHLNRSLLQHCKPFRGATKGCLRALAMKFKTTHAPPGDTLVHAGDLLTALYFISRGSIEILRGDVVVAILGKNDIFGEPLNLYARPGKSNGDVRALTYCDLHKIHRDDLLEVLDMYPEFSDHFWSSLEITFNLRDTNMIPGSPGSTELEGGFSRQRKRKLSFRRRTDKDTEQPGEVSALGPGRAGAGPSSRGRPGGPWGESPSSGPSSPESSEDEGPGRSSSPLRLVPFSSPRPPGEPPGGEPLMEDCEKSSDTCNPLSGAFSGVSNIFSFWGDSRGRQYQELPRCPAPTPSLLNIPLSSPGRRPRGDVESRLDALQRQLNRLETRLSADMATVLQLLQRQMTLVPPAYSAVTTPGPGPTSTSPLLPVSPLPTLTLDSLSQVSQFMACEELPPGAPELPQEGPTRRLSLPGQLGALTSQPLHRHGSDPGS

Turning to `CC[C@H]1OC(=O)[C@H](C)[C@@H](O[C@H]2C[C@@](C)(OC)[C@@H](O)[C@H](C)O2)[C@H](C)[C@@H](O[C@@H]2O[C@H](C)C[C@H](N(C)C(=O)N3CCOCC3)[C@H]2O)[C@](C)(OC)C[C@@H](C)C(=O)[C@H](C)[C@H]2[C@H](SCCOc3cc(C(=O)Nc4c(Cl)cncc4Cl)ccc3OC)C(=O)O[C@@]21C` [Example 15 WO2009/106419], at hERG channel (1 μM), the “Blocking of hERG @ 1 μM (% remaining tail current)” value amounted to 100%. At hERG channel (10 μM), the “Blocking of hERG @ 10 μM (% remaining tail current)” value is 98.6%. In addition, the MIC in the data set on P. acnes EG7NS, in the data set on M. catarrhalis QK34, in the data set with P. granulosum EG13NS, in the data set with S. aureus ATCC29213, with H. influenzae 3168 and in the data set on S. pyogenes ATCC19615 was over 32 µg/mL in each case. Also, in data set [1], the “oral bioavailability (in words)” value is listed as “rather low”. The bioavailability in data set [1] (in vivo, mouse, 10 mg/kg oral, 1 mg/kg intravenous, dose-normalized AUC, read-out: Oral bioavail. (mouse F %)) came out at 4.6%. For the same compound, the “PDE4-inhibiting activity (in words)” value in the data set on PDE4 (U937) was “excellent”. The IC50 on PDE4 (U937) (PDE4 partially purified from U937 cells) turned out to be 0.071 µM. The “antibacterial activity (in words)” value with bacteria is listed as “strongly reduced”.

In general, IC50 refers to the point on the concentration scale where inhibition reaches its midpoint. Lower therefore signals inhibition by little substance.

The values above are taken from patent publication US9738676B2, “Selected macrolides with PDE4-inhibiting activity” (Basilea Pharmaceutica AG, priority 2012, dated 2017).
